Where a name gives a salt, the structure may show the parent alone.
How the values were obtained:
αvβ5 integrin receptor = αvβ5 integrin receptor (Homo sapiens, UniProt P06756+P18084); assay: Competition ELISA, integrin antagonism (fibronectin ligand); conditions: fibronectin binding to coated receptor, read-out: EC50 ανβ5
Description: (§1) Suitable methods for determining EC50 values are known to the skilled person. One particular method to determine the value for a particular compound is a competition ELISA assay wherein the integrin receptor under investigation (in particular human αvβ3 integrin receptor) is coated to a multi-well plate using a 4 μg/mL solution and the wells are blocked with 5% bovine serum albumin. The fibronectin concentration to be used in the assay is determined experimentally in a separate experiment by testing the binding of various fibronectin concentrations to the coated integrin under investigation, the concentration of fibronectin for the assay being the one that gives 80% of maximal binding. The determined concentration of human fibronectin is then added to the coated and blocked wells in the presence of increasing concentrations of the compound. After 2 h incubation at 37° C., the wells are washed and the bound fibronectin is detected with the help of a specific reagent, such as a detectable anti-fibronectin antibody. Quantitative analysis of the data is then performed to determine EC50 values, i.e. the concentration of the compound that reduces fibronectin binding to the coated receptor by 50%.
(§2) The principle of the competition ELISA assays used here was as follows: (1) the integrin receptor under investigation was coated to 96-well plates and the wells were blocked, (2) an integrin ligand (fibronectin) was then added to the relevant wells in the presence of increasing concentrations of a given integrin antagonist, (3) after a defined amount of time, the wells were washed and the bound ligand was detected with the help of a specific reagent. Quantitative analysis of the data was then performed to determine EC50 values, i.e. the concentration of the integrin antagonist that reduces ligand binding to the coated receptor by 50%.

α5β1 integrin receptor = α5β1 integrin receptor (Homo sapiens, UniProt P05556+P08648); assay: as above; conditions: fibronectin binding to coated receptor
Description: as §1, §2

platelet integrin αIIbβ3 = platelet integrin αIIbβ3 (Homo sapiens, UniProt P05106+P08514); assay: as above; conditions: fibronectin binding to coated receptor
Description: as §1, §2

αvβ3 integrin receptor = αvβ3 integrin receptor (Homo sapiens, UniProt P05106+P06756); assay: as above; conditions: fibronectin binding to coated receptor, read-out: EC50 ανβ3
Description: as §1, §2

[1] = tested on: RPE-choroid sclera explants; assay: Murine choroidal explant assay (vessel sprouting); format: cell-based, C57BL/6J mice; conditions: for IC50: Mus musculus, murine choroid explants in fibrin gel, 3 to 4 days, read-out: IC50 vessel outgrowth
Description: The assay is based on a murine microvascular angiogenesis explant model, which closely mimics in viva choroidal angiogenesis. The major advantage of this organotypical culture model is that cells are kept within their normal environment, thereby preserving cell-cell interactions, while maintaining a higher level of experimental control than in animal models. The choroidal explant model or briefly EMCA model allows for rapid evaluation of new anti-angiogenic therapeutics, with the additional benefit of excluding the potential lack of exposure often encountered when testing small molecules in animal eyes. RPE-choroid sclera explants (hereinafter referred to as choroid explants) are embedded in a three-dimensional fibrinogen/fibrin gel. Addition of serum-containing medium induces extensive endothelial cell sprout outgrowth into the matrix after 3 to 4 days in culture.
All experiments were performed using 4 to 5-weeks old male C57BL/6J mice (Charles River Laboratories France), housed under standard laboratory conditions according to a normal day/night rhythm with ad libitum access to food and water. All animal experiments were approved by the Institutional Ethical Committee of KU Leuven.
After initial optimization, a general protocol was set-up. Briefly, after euthanasia of the mice using pentobarbital (200 mg/kg, IP, Dolethal, Vetoquinol) followed by cervical dislocation, eyes were immediately enucleated with curved forceps and kept in ice-cold DPBS (cat no 14190-136, Gihco). Under a stereomicroscope, the eye was placed in a drop of ice-cold DPBS, and held in place with forceps on an ice-cold petri dish. The cornea and lens were removed via a circumferential incision at the limbus (cornea-sclera boundary) using Vannas spring scissors (Fine Science Tools). Next, redundant muscles were removed from the remaining eyeball and a cut was made from the edge of the posterior chamber towards the optic nerve head. […]

[2] = tested on: human umbilical vein endothelial cells (HUVECs); assay: ORIS Cell Migration Assay; format: cell-based; conditions: HUVEC, fibronectin-coated plates, 24 h migration
Description: Endothelial cell wound healing is mediated by endothelial cell migration and proliferation, both critical components of the angiogenesis process, and is routinely used as a surrogate model for in vitro angiogenic potential. The ORIS™ Cell Migration Assay was used with human umbilical vein endothelial cells (HUVECs).
HUVEC cells (SCCE-001, Cat no 1000519, Merck Chemicals) were cultured in T175 flasks (Cat no 353112, falcon) in EndoGro Growth Medium (SCME-003, Merck Chemicals) and split when they reached 90-100% confluence.
For the assay, cells were used at passage 2 to 4 after thawing and at 80-90% confluency. At the beginning of the day, the fibronectin-coated Oris™ Cell Migration Assay Plates (Cat no # CMAFN.101, AMS Biotechnology) were removed from refrigeration and placed at RT for 1 h. The Oris Detection Masks were washed with ethanol and applied to the bottom of the 96-well plates, aligning the Al corner of the masks with the Al corner of the plates. Cells were harvested by trypsinization (Cat no 25300, Gibco), centrifuged at 250 g for 5 mm and suspended at 0.4·10^6 per mL in complete EndoGro growth medium. 100 μL of the cell suspension were added to the wells and the plates were incubated for 6 h at 37° C. and 5% C02 to allow cells to adhere.
At the end of the incubation, the stopper tool was washed with ethanol and used to remove the stoppers from all the wells except the reference wells. […]
Just prior to the end of the incubation, a 4 μg/mL calcein AM (Cat no 354217, Beckton Dickinson) solution was prepared in pre-warmed HBSS (Cat no 14025, Gibco). […] After incubation the fluorescence was read at 494 nm excitation and 517 nm emission wavelengths using the Flexstation and the SofiMax Pro 5.4.5 software (Molecular Devices). The fluorescence was read from the bottom of the plates with the lid on to keep them sterile. The masks were then removed and pictures were taken with the Axiovert fluorescence microscope (Zeiss) using reflected light, GFP and a 2.5× objective.

Structure (SMILES) | EC50 (αvβ5 integrin receptor) | EC50 (α5β1 integrin receptor) | EC50 (platelet integrin αIIbβ3) | EC50 (αvβ3 integrin receptor) | IC50 [1] | IC50 [2] | endothelial sprout formation, in words ([1]; murine choroid explants)
Cc1nc(NC[C@H](NC(=O)OCC(=O)O)C(=O)O)c(C)c(N2CCC(c3ccc4c(n3)NCCC4)CC2)n1 [cpd2, (2S)-2-([(carboxymethoxy)carbonyl]amino)-3-({2,5-dimethyl-6-[4-(5,6,7,8-tetrahydro-1,8-naphthyridin-2-yl)piperidin-1-yl]pyrimidin-4-yl}amino)propanoic acid dihydrochloride] | 1 to 10 nM | 1 to 10 nM | > 25 nM | 1 to 10 nM |  | < 1000 nM | 
Cc1nc(NC[C@H](NC(=O)OC(C)C(=O)O)C(=O)O)c(C)c(N2CCC(c3ccc4c(n3)NCCC4)CC2)n1 (stereo partly drawn) [cpd3, (2S)-2-{[(1-carboxyethoxy)carbonyl]amino}-3-({2,5-dimethyl-6-[4-(5,6,7,8-tetrahydro-1,8-naphthyridin-2-yl)piperidin-1-yl]pyrimidin-4-yl}amino)propanoic acid, dihydrochloride] | 1 to 10 nM | 1 to 10 nM | > 25 nM | 1 to 10 nM | ~1000 nM | < 1000 nM | inhibition of vessel sprouting
Cc1nc(NC[C@H](NC(=O)OCCC(=O)O)C(=O)O)c(C)c(N2CCC(c3ccc4c(n3)NCCC4)CC2)n1 [cpd1, (2S)-2-{[(2-carboxyethoxy)carbonyl]amino}-3-({2,5-dimethyl-6-[4-(5,6,7,8-tetrahydro-1,8-naphthyridin-2-yl)piperidin-1-yl]pyrimidin-4-yl}amino)propanoic acid] | 1 to 10 nM | 1 to 10 nM | > 25 nM | 1 to 10 nM |  |  | 

Second part, led by results:

EC50 (αvβ5 integrin receptor) | EC50 (α5β1 integrin receptor) | EC50 (platelet integrin αIIbβ3) | EC50 (αvβ3 integrin receptor) | Structure (SMILES) | IC50 [1] | IC50 [2] | endothelial sprout formation, in words ([1]; murine choroid explants)
1 to 10 nM | 1 to 10 nM | 1 to 10 nM | 10 to 25 nM | Cc1nc(NC[C@H](NC(=O)OCc2ccccc2)C(=O)O)c(C)c(N2CCC(c3ccc4c(n3)NCCC4)CC2)n1 [cpdB, reference compound] | ~1000 nM | < 1000 nM | 
1 to 10 nM | 1 to 10 nM | 1 to 10 nM | 1 to 10 nM | COC(=O)CCOC(=O)N[C@@H](CNc1nc(C)nc(N2CCC(c3ccc4c(n3)NCCC4)CC2)c1C)C(=O)O [cpdA, (2S)-3-({2,5-dimethyl-6-[4-(5,6,7,8-tetrahydro-1,8-naphthyridin-2-yl)piperidin-1-yl]pyrimidin-4-yl}amino)-2-{[(3-methoxy-3-oxopropoxy)carbonyl]amino}propanoic acid trifluoro acetate, reference compound] |  |  | 
